The source made the active and inactive calls.
Legend:
HeLa [1] = assay: Antiproliferative activity against human HeLa cells at 2 uM after 96 hrs by MTT assay in presence of ferric ion; type: functional, cell-based
MCF7 [2] = assay: Antiproliferative activity against human MCF7 cells at 2 uM after 96 hrs by MTT assay in presence of ferric ion; type: functional, cell-based
Jurkat [3] = assay: Antiproliferative activity against human Jurkat cells at 2 uM after 96 hrs by MTT assay in presence of ferric ion; type: functional, cell-based
A-375 [4] = assay: Antiproliferative activity against human A375 cells at 2 uM after 96 hrs by MTT assay in presence of ferric ion; type: functional, cell-based
PANC-1 [5] = assay: Antiproliferative activity against human PANC1 cells at 2 uM after 96 hrs by MTT assay in presence of ferric ion; type: functional, cell-based
A549 [6] = assay: Antiproliferative activity against human A549 cells at 2 uM after 96 hrs by MTT assay in presence of cobalt ion; type: functional, cell-based
MCF7 [7] = assay: Antiproliferative activity against human MCF7 cells at 2 uM after 96 hrs by MTT assay in presence of cobalt ion; type: functional, cell-based
HT-1080 [8] = assay: Antiproliferative activity against human HT1080 cells at 2 uM after 96 hrs by MTT assay in presence of cobalt ion; type: functional, cell-based
A549 [9] = assay: Antiproliferative activity against human A549 cells at 2 uM after 96 hrs by MTT assay in presence of zinc ion; type: functional, cell-based
Bel-7402 [10] = assay: Antiproliferative activity against human Bel7402 cells at 2 uM after 96 hrs by MTT assay in presence of zinc ion; type: functional, cell-based
HepG2 [11] = assay: Antiproliferative activity against human HepG2 cells at 2 uM after 96 hrs by MTT assay in presence of zinc ion; type: functional, cell-based
HeLa [12] = assay: Antiproliferative activity against human HeLa cells at 2 uM after 96 hrs by MTT assay in presence of zinc ion; type: functional, cell-based
MCF7 [13] = assay: Antiproliferative activity against human MCF7 cells at 2 uM after 96 hrs by MTT assay in presence of zinc ion; type: functional, cell-based
Jurkat [14] = assay: Antiproliferative activity against human Jurkat cells at 2 uM after 96 hrs by MTT assay in presence of zinc ion; type: functional, cell-based
HT-1080 [15] = assay: Antiproliferative activity against human HT1080 cells at 2 uM after 96 hrs by MTT assay in presence of zinc ion; type: functional, cell-based
A-375 [16] = assay: Antiproliferative activity against human A375 cells at 2 uM after 96 hrs by MTT assay in presence of zinc ion; type: functional, cell-based
NCI-N87 [17] = assay: Antiproliferative activity against human NCI-N87 cells at 2 uM after 96 hrs by MTT assay in presence of zinc ion; type: functional, cell-based
A549 [18] = assay: Antiproliferative activity against human A549 cells at 2 uM after 96 hrs by MTT assay in presence of manganese ion; type: functional, cell-based
Bel-7402 [19] = assay: Antiproliferative activity against human Bel7402 cells at 2 uM after 96 hrs by MTT assay in presence of manganese ion; type: functional, cell-based
HeLa [20] = assay: Antiproliferative activity against human HeLa cells at 2 uM after 96 hrs by MTT assay in presence of manganese ion; type: functional, cell-based
MCF7 [21] = assay: Antiproliferative activity against human MCF7 cells at 2 uM after 96 hrs by MTT assay in presence of manganese ion; type: functional, cell-based
Jurkat [22] = assay: Antiproliferative activity against human Jurkat cells at 2 uM after 96 hrs by MTT assay in presence of manganese ion; type: functional, cell-based
HT-1080 [23] = assay: Antiproliferative activity against human HT1080 cells at 2 uM after 96 hrs by MTT assay in presence of manganese ion; type: functional, cell-based
A-375 [24] = assay: Antiproliferative activity against human A375 cells at 2 uM after 96 hrs by MTT assay in presence of manganese ion; type: functional, cell-based
PANC-1 [25] = assay: Antiproliferative activity against human PANC1 cells at 2 uM after 96 hrs by MTT assay in presence of manganese ion; type: functional, cell-based
Bel-7402 [26] = assay: Antiproliferative activity against human Bel7402 cells at 2 uM after 96 hrs by MTT assay in presence of 1 uM of ferrous ion; type: functional, cell-based
MCF7 [27] = assay: Antiproliferative activity against human MCF7 cells at 2 uM after 96 hrs by MTT assay in presence of 1 uM of ferrous ion; type: functional, cell-based
Jurkat [28] = assay: Antiproliferative activity against human Jurkat cells at 2 uM after 96 hrs by MTT assay in presence of 1 uM of ferrous ion; type: functional, cell-based
PANC-1 [29] = assay: Antiproliferative activity against human PANC1 cells at 2 uM after 96 hrs by MTT assay in presence of 1 uM of ferrous ion; type: functional, cell-based
HepG2 [30] = assay: Antiproliferative activity against human HepG2 cells at 2 uM after 96 hrs by MTT assay in presence of 1 uM of ferrous ion; type: functional, cell-based
A549 [31] = assay: Antiproliferative activity against human A549 cells after 96 hrs by MTT assay; type: functional, cell-based; conditions: A549, 96 h
HepG2 [32] = assay: Antiproliferative activity against human HepG2 cells after 96 hrs by MTT assay; type: functional, cell-based; conditions: HepG2, 96 h
MCF7 [33] = assay: Antiproliferative activity against human MCF7 cells after 96 hrs by MTT assay; type: functional, cell-based; conditions: MCF7, 96 h
Jurkat [34] = assay: Antiproliferative activity against human Jurkat cells after 96 hrs by MTT assay; type: functional, cell-based
HT-1080 [35] = assay: Antiproliferative activity against human HT1080 cells after 96 hrs by MTT assay; type: functional, cell-based; conditions: HT-1080, 96 h
[36] = Metal chelating activity of the compound assessed as ferrous ion complex formation in doble-distiled water by UV-vis spectrometry; type: functional
[37] = Metal chelating activity of the compound assessed as ferric ion complex formation in doble-distiled water by UV-vis spectrometry; type: functional
[38] = Metal chelating activity of the compound assessed as cobalt complex formation in doble-distiled water by UV-vis spectrometry; type: functional
[39] = Metal chelating activity of the compound assessed as manganese complex formation in doble-distiled water by UV-vis spectrometry; type: functional
A549 [40] = assay: Antiproliferative activity against human A549 cells at 2 uM after 96 hrs by MTT assay in presence of ferrous ion; type: functional, cell-based
HepG2 [41] = assay: Antiproliferative activity against human HepG2 cells at 2 uM after 96 hrs by MTT assay in presence of ferrous ion; type: functional, cell-based
MCF7 [42] = assay: Antiproliferative activity against human MCF7 cells at 2 uM after 96 hrs by MTT assay in presence of ferrous ion; type: functional, cell-based
Jurkat [43] = assay: Antiproliferative activity against human Jurkat cells at 2 uM after 96 hrs by MTT assay in presence of ferrous ion; type: functional, cell-based
HT-1080 [44] = assay: Antiproliferative activity against human HT1080 cells at 2 uM after 96 hrs by MTT assay in presence of ferrous ion; type: functional, cell-based
A-375 [45] = assay: Antiproliferative activity against human A375 cells at 2 uM after 96 hrs by MTT assay in presence of ferrous ion; type: functional, cell-based
NCI-N87 [46] = assay: Antiproliferative activity against human NCI-N87 cells at 2 uM after 96 hrs by MTT assay in presence of ferrous ion; type: functional, cell-based
A549 [47] = assay: Antiproliferative activity against human A549 cells at 2 uM after 96 hrs by MTT assay in presence of ferric ion; type: functional, cell-based
Bel-7402 [48] = assay: Antiproliferative activity against human Bel7402 cells at 2 uM after 96 hrs by MTT assay in presence of ferric ion; type: functional, cell-based
HepG2 [49] = assay: Antiproliferative activity against human HepG2 cells at 2 uM after 96 hrs by MTT assay in presence of ferric ion; type: functional, cell-based

Cc1cc2c(cc(O)c1=O)[C@@]13CCCC(C)(C)[C@@H]1C[C@@H]2OC3 [MILTIPOLONE]
1.36 µM: IC50 (HT-1080 [35])
1.92 µM: IC50 (A549 [31])
active: Activity (HeLa [1]) | Activity (MCF7 [2]) | Activity (Jurkat [3]) | Activity (A-375 [4]) | Activity (PANC-1 [5]) | Activity (A549 [6]) | Activity (MCF7 [7]) | Activity (HT-1080 [8]) | Activity (A549 [9]) | Activity (Bel-7402 [10]) | Activity (HepG2 [11]) | Activity (HeLa [12]) | Activity (MCF7 [13]) | Activity (Jurkat [14]) | Activity (HT-1080 [15]) | Activity (A-375 [16]) | Activity (NCI-N87 [17]) | Activity (A549 [18]) | Activity (Bel-7402 [19]) | Activity (HeLa [20]) | Activity (MCF7 [21]) | Activity (Jurkat [22]) | Activity (HT-1080 [23]) | Activity (A-375 [24]) | Activity (PANC-1 [25]) | Activity (Bel-7402 [26]) | Activity [36] | Activity [37] | Activity [38] | Activity [39] | Activity (A549 [47]) | Activity (Bel-7402 [48]) | Activity (HepG2 [49])
2 µM: IC50 (HepG2 [32]) | IC50 (MCF7 [33])
1.4 µM: IC50 (Jurkat [34])
inactive: Activity (MCF7 [27]) | Activity (Jurkat [28]) | Activity (PANC-1 [29]) | Activity (HepG2 [30]) | Activity (A549 [40]) | Activity (HepG2 [41]) | Activity (MCF7 [42]) | Activity (Jurkat [43]) | Activity (HT-1080 [44]) | Activity (A-375 [45]) | Activity (NCI-N87 [46])
